In US11730830B2, “Topical application of nerve labeling dyes for image-guided surgery” (General Electric Company, priority 2016, dated 2023):

What was measured:
nerves = assay: Intraoperative topical application at the surgical site, fluorescence nerve imaging in murine model; type: in vivo, mouse
Protocol: (§1) Commercial small animal system: A fluorescence stereomicroscope (SteREO Lumar V12, Carl Zeiss Inc., Thornwood, N.Y.) equipped with a multispectral imaging camera (Nuance, CRI, Woburn, Mass.) was used with an exposure time of 1-5 s. Excitation of the flurophores was achieved using a filter centered at 406 nm with a 15 nm bandwidth. The fluorescence emission spectrum was recorded at wavelengths ranging from 420 to 720 nm at 10-nm increments using the attached multispectral camera. Alternatively, we had also used an emission filter with 550 long pass filter (in the absence of multispectral camera).
(§2) The laparoscope module comprises a standard 10 mm zero degree surgical laparoscope with 70 degree field of view, a 4 mm diameter, 1800 mm long laparoscope light guide, 35 mm video coupler, a compact 90 gram, 659×494 pixel GigE color camera (acA640-90gc Basler, Ahrensburg, Germany), and a 405 nm blocking filter (BLP01-405R Semrock, Rochester, N.Y.), which has >97% transmission from 420 to 800 nm. The ⅓″ format sensor provides high sensitivity with 7.4 μm pixel size and adequate field of view (40 degrees out of 70 degrees passed by the laparoscope). The video coupler interfaces with the eyepiece of the laparoscope providing an interchangeable set up for different types of laparoscopes. The 405 nm filter is secured directly in front of the image sensor with a c-mount retaining ring. The camera threads onto the video coupler directly.
Illumination for white light and fluorescence imaging is coupled into a single light guide using conventional optics. The light coupling module consists of two 32 mm aspheric lenses to collimate a white light LED and a 500 mW, 405 nm blue laser diode coupled into a multimode fiber with 400 μm diameter (Shanghai Laser & Optics Century Co., Ltd., China). The LED spectrum is filtered with a 450 nm long pass filter (NT49-819, Edmund Optics, Barrington, N.J.) to minimize excitation of the fluorescent agent, while maintaining the white light color spectrum. The LED and laser are combined with a 425 nm dichroic mirror (DMLP425R, Thorlabs). The combined illumination is coupled into the light guide with a third 32 mm aspheric lens (ACL4532, Thorlabs). The maximum irradiance from the LED and 405 nm laser are 2.0 mW/cm2 and 7.3 mW/cm2, respectively, at 25 mm from the tip of the laparoscope. Formulation, dosing, and kinetics for in vivo imaging following systemic IV injection of contrast agent in animal model:
Several different formulations were tested, including but not limited to: • Formulation 1: 10% PEG-300; 20% PG; 0.4% Carbopol; 69.6% water; • Formulation 2: 10% DMSO; 20% PEG-800; 20% PG; 0.1% Polysorbate-80; 49.9% Water; • Formulation 3: 30% PEG-300; 5% DMSO; 10% PVA; 55% water; • Formulation 4: 30% PEG-300; 10% PVA; 60% water; • Formulation 5: 30% PEG-300; 5% DMSO; 30% Pluronic F-68; 0.1% Polysorbate-80; 34.9% water; • Formulation 6: 20% PEG-300; 10% PG; 5% PVP; 5% Laurocapram; 60% water; • Formulation 7: 20% PEG-300; 10% PG; 5% PVP; 5% Laurocapram; 5% EtOH; 5% oleic acid; 10% Tween-80; 40% water; where: PVA=polyvinyl alcohol; PVP=polyvinyl pyrrolidone; and PEG=polyethylene glycol. […]
Topically administered nerve labeling dyes were also able to label nerves in a living animal. The fluorescence from nerves can be detected within minutes after intraoperative topical application. Representative white light and fluorescence images of topically administered FORMULA I(f) in a mouse are shown in FIG. 2A (white light) and FIG. 2B (fluorescence). […]

[1] = tested on: rat nerve tissue sections; assay: Ex vivo labeling of cryosectioned nerve tissue; settings: 10 uM, 1 h, buffer with 10% Cremophor EL and 65% rat serum in PBS
Description: Various nerves were harvested from male Sprague Dawley rats. Tissue was fixed by perfusion and post-fixed with 10% neutral buffered formalin. Following post-fixation, tissue was cryoprotected in a 20% sucrose solution made in phosphate buffered saline (PBS). Nerves were then flash-frozen using methanol and dry ice in OCT media. In some cases, polyvinylidene fluoride membranes were used to help keep the nerves vertical in the OCT media. 5-10 micron section were sliced on a Leica microtome and stored in a −80° C. freezer prior to staining with agents (1)-(5).
For ex vivo staining of nerve sections, the slides were rinsed in PBS (3×5 min). Contrast agent (with a final concentration of 10 uM) was added onto the tissue in a buffer containing 10% Cremophor EL and 65% rat serum in PBS. The slides were incubated for 1 h in a dark, humid chamber after which they were washed with PBS (3×5 min), cover-slipped, and imaged using a custom filter cube (excitation filter: 387 nm with 11 nm band pass, 409 nm dichroic mirror; emission filter: 409 nm long pass). A buffer only control was also performed using exactly the same procedure to determine autofluorescence under the same settings.
Molecules that are related to the “push-pull” core structure of this class of compound would also benefit from this new method of application. The following is an example of ex vivo labeling of resected nerve tissue. In here, compounds used to stain cryo sectioned nerve tissue from rats.

sciatic nerve = assay: Kinetics of uptake and clearance after systemic IV injection, in vivo fluorescence imaging; design: species or system murine; settings: IV injection 16.6 mg/kg
Protocol: as §1
(§3) For systemic administration by IV injection, the contrast agents were formulated using the following excipients: 5-15% propylene glycol (Fisher P355-1), 5-30% 2-hydroxypropyl-β-cyclodextrin (2-HPβCD, Sigma H5784) and 70-90% distilled/deionized water. In some cases, PEG-300 and DMSO were also added. The IV formulation was brought to a final pH of 7.4 using 1M of hydrochloric acid.
Specifically, IV formulation for FORMULA I(f) consisted of 80% distilled/deionized water, 10% 2-hydroxypropyl-β-cyclodextrin (2-HPβCD, Sigma H5784), and 10% propylene glycol (Fisher P355-1). […]
A dose of 16.6 mg/kg of FORMULA I(f) was used for measuring the nerve fluorescence at 0.5, 1, 2, 3 and 4 hours after IV injection. […]

nerve = assay: Intraoperative topical application in porcine surgical model, real-time fluorescence imaging; type: in vivo; settings: pig
Description: as §2
Illumination for white light and fluorescence imaging is coupled into a single light guide using conventional optics. The light coupling module consists of two 32 mm aspheric lenses to collimate a white light LED and a 500 mW, 405 nm blue laser diode coupled into a multimode fiber with 400 μm diameter (Shanghai Laser & Optics Century Co., Ltd., China). The LED spectrum is filtered with a 450 nm long pass filter (NT49-819, Edmund Optics, Barrington, N.J.) to minimize excitation of the fluorescent agent, while maintaining the white light color spectrum. […]

[2] = Solubility check of the IV formulation; type: physicochemical; settings: propylene glycol, 2-HPβCD, water, pH 7.4; visual, centrifugation, buffer dissolution, dynamic light scattering
Protocol: as §3
Specifically, IV formulation for FORMULA I(f) consisted of 80% distilled/deionized water, 10% 2-hydroxypropyl-β-cyclodextrin (2-HPβCD, Sigma H5784), and 10% propylene glycol (Fisher P355-1).

time of maximum sciatic nerve and adipose tissue fluorescence (sciatic nerve; measured at 0.5, 1, 2, 3 and 4 hours) [h] | solubility in the IV formulation [2] | Structure (SMILES) | nerve labeling by topical application (nerves; mouse, small animal commercial instrument) | fluorescent staining of nerve tissue sections [1] | best nerve-to-muscle ratio (sciatic nerve; 1 h post-injection, murine model) | topical dose that effectively visualizes fluorescent nerves (nerves; Formulation 6, incubated 3 minutes, irrigated with saline, mouse model) [mg] | penetration into the nerve bundle, fluorescence microscopy of cryosectioned sciatic nerve (nerves; after topical application, irrigation and excision, 15 micron sections, murine model) | fluorescence intensity from surrounding muscle tissue, topical versus systemic administration (nerves; topical about 0.1 milligrams in Formulation 4 versus IV about 16 mg/kg, multispectral imaging, murine model) | detection of very fine nerve fibers in a brachial plexus branch (nerves; topical in Formulation 4, 5 minutes, irrigated with sterile saline, dual-mode laparoscopic instrument, mouse) | nerve visibility under fluorescence imaging versus white light (nerve; 0.3 milligrams in Formulation 6, retroperitoneal area, 3 minutes, saline irrigation) | nerve visibility under fluorescence guidance versus white light (nerve; 4 milligrams in Formulation 4, 5 minutes, warm saline irrigation)
 |  | COc1cc(/C=C/c2ccc(C#N)cc2)ccc1/C=C/c1ccc(N)cc1 [FORMULA I(d)] | fluorescence nerve labeling | most robust fluorescent staining |  |  |  |  |  |  | 
 |  | COc1cc(/C=C/c2ccc(S(C)(=O)=O)cc2)ccc1/C=C/c1ccc(N)cc1 [FORMULA I(e)] |  | most robust fluorescent staining |  |  |  |  |  |  | 
1 | Complete solubility | COc1cc(/C=C/c2ccc(S(=O)(=O)N3CCN(CCO)CC3)cc2)ccc1/C=C/c1ccc(N)cc1 [FORMULA I(f)] |  | most robust fluorescent staining | 3.7 | 0.01 | donut-shaped myelin bundles are stained | lower across all the emission wavelengths | more readily detected under fluorescence guidance | more pronounced under fluorescence imaging compared to white light imaging | highly detectable under fluorescence guidance
